Values joined by “and” are separate entries in the source; they are usually repeats but may differ in a detail not shown here. Identical values can stand only once.
Tested on: Aspergillus niger
Assay: Fungal resistance test on coated test cloth
Assay type: cell-based
Parameters: key to Judgment (fungal resistance): NG: Completely no fungal growth; TG: Growth on less than 10% of the surface area; SG: Growth on 10% or more and less than 30% of the surface area; MG: Growth on 30% or more and less than 60% of the surface area; HG: Growth on 60% or more of the surface area
Details: cultured 29±1° C. 7 days; for Growth rate (%) Average: average of three test cloths; for Growth rate (%): single test cloths (three per solution), 0.3 ml ethanol solution (A 1.17%, B 1.00%, C 0.300%) coated, dried 48 hours
Description: Each of betaine ester (1), betaine ester (3) and geraniol was dissolved in 99.5% ethanol to prepare solutions having the following concentrations and used as test solutions (A), (B) and (C), respectively.
Test solution (A): betaine ester (1), 1.17% in concentration
Test solution (B): betaine ester (3), 1.00% in concentration
Test solution (C): geraniol, 0.300% in concentration
(1) Preparation of test cloth
A 0.3 ml portion of each test solution or 0.3 ml of 99.5% ethanol used as a control was separately coated on a cotton-polyester mixture test cloth cut into a disc of 25 mm in diameter and then the cloth was dried at 25° C. under 30% relative humidity for 48 hours to be used as a test cloth. Three sheets of the test cloth were prepared for one test solution and used in the test.
(2) Fungal resistance test
A plate agar medium having the following composition was prepared to a thickness of 15 mm in a Petri dish of 150 mm in diameter. The medium was used by sterilizing it in advance at 120° C. for 20 minutes in an autoclave.
Pure water: 1,500 ml, glucose: 15 g, agar: 23 g, inorganic salts stock solution (NH4NO3 90 g, KH2PO4 60 g, MgSO4 7H2O, 15 g, KCl 15 g, pure water 1,000 g): 50 ml
Each test cloth was put on the above medium, and about 1 ml of a spore suspension prepared by dispersing spores of a fungus (Aspergillus niger) in sterile water (containing 0.005% sodium dioctylsulfosuccinate) was sprayed. This was cultured at 29±1° C. for 7 days to carry out comparative test of fungal resistance by inspecting growing condition of the fungus on the periphery or surface of the sample, and the results were evaluated based on the following five step criteria by observing growth condition of the fungus on the test cloth surface with the naked eye and under a microscope. That is, when the fungus is not grown on the surface of a test cloth and also, when the test cloth is peeled from the medium, the fungus is not grown on the backside but forming an inhibition zone, the result is judged as excellent in fungal resistance (NG).
Completely no fungal growth: NG (no growth)
Growth on less than 10% of the surface area: TG (trace of growth)
Growth on 10% or more and less than 30% of the surface area: SG (slight growth)
Growth on 30% or more and less than 60% of the surface area: MG (moderate growth)
Growth on 60% or more of the surface area: HG (heavy growth)

SMILES: CCCCCCCCCCCCCCCCCC(=O)NCCC[N+](C)(C)CC(=O)OC/C=C(\C)CCC=C(C)C.[Cl-] [betaine ester (1), N,N-dimethyl-N-geranyloxycarbonylmethyl-N-(3-(octadecanoylamino)propyl)ammonium chloride]
- Growth rate (%) Average: 0%
- Judgment (fungal resistance): NG
- Growth rate (%): 0%

SMILES: CCCCCCCCCCCC(=O)NCCC[N+](C)(C)CC(=O)OC/C=C(\C)CCC=C(C)C.[Cl-] [betaine ester (3), N,N-dimethyl-N-geranyloxycarbonylmethyl-N-(3-(dodecanoylamino)propyl)ammonium chloride]
- Growth rate (%) Average: 0%
- Judgment (fungal resistance): NG
- Growth rate (%): 0%

SMILES: CC(C)=CCC/C(C)=C/CO [geraniol, reference compound]
- Growth rate (%) Average: 36%
- Judgment (fungal resistance): MG (Growth on 30% or more and less than 60% of the surface area)
- Growth rate (%) (listed as (C)): 35% and 32% and 40%

From patent US6586639B2, “Functional alcohol releasing substance” (Kao Corporation, priority 1999, dated 2003)
